Experimental data from patent publication US20070098735A1, “Methods for the Elimination of Pathogens and Other Particulate Agents” (priority 2005, published 2007).

Test system: lipid raft (LR) microdomain of the macrophage plasma membrane
Test: Binding of exogenous HRP-labeled HSP70 to purified lipid raft fractions
Parameters: species or system murine
Settings: HRP-labeled HSP70 100 μg/ml; with ganglioside GM1; Brij98 or Triton X-100
Method: Purification of lipid rafts. Lipid rafts were purified as DRMs (detergent resistant membrane) using non-ionic detergents following sucrose gradient centrifugation. […] After incubation, cells were washed 3× with PBS and lysed with 2 ml MES (4-morpholinoethanesulfonic acid) buffered saline (MBS; 150 mM NaCl, 20 mM MES, pH 6.5, […] and 5 mM iodoacetamide) containing 0.5% Triton X-100 or 1% for 30 minutes on ice or 7 minutes at 37° C. respectively. The cells were mixed with an equal volume of 90% sucrose in MEB buffer (150 mM NaCl, 20 mM MES [pH 6.5]) and placed at the bottom of the centrifuge tube. […] Fractions of 1 ml each were collected from the bottom of tube and each fraction was analyzed by SDS-PAGE and immunoblotting.
Briefly, RAW264.7 macrophages were treated with exogenous HRP-labeled HSP70 (100 μg/ml) or were left untreated for 60 minutes and washed with PBS three times to remove free HSPs. […] These fractions obtained (light: LR and heavy: non-LR) were then analyzed using immunoblotting to detect HRP activity of HSP70-HRP complexes or tested for the presence of an LR-associated ganglioside GM1 by using HRP-cholera toxin B. Similarly, these fractions were tested for the amount of cholesterol using (Biovision Research Products, CA). […]

HSP70: heat shock protein purified from murine livers, prepared as a complex with endogenous peptide
localisation of exogenously administered HSP70: co-localized on the LR-microdomain of the macrophage plasma membrane
